Literature values, collected in patent US20230364118A1, “RIBITOL TREATMENT” (priority 2020, published 2023).

Details: rabbits; cited from earlier work

O=C[C@H](O)[C@H](O)[C@H](O)CO [D-ribose]
half-life: 14 to 24 min
